Assay results published in PMC5874716, “Antimicrobial Peptides for Topical Treatment of Osteomyelitis and Implant-Related Infections: Study in the Spongy Bone” (Pharmaceuticals, 2018).
Structures can show the parent of a compound that is named as a salt. Non-standard residues stand in square brackets, D forms with d. Residues, ends and D or L forms follow the SMILES beside them. No end group written: not given here. βAla = NCCC(=O)O

Experiments:
[1] = tested on: E. faecalis clinical isolate (Motol); test: microbe, parasite or virus in culture; assay type: cell-based; settings: clinical isolate Motol, Bioscreen C, at least three times in duplicates
Method: (§1) Femur heads (ca. 70 pieces) taken from patients during hip replacement surgery were periodically purchased in the period between 2014–2017 as discarded from the bone tissue bank at University Hospital in Motol, Prague, Czech Republic. The reason for the replacements by artificial prosthesis was the worn out cartilage on the surface of their heads. Bone samples were stored at −80 °C under standard conditions of certified tissue banks. In the laboratory, they were kept at +5 °C overnight and then at room temperature for several hours before they could be used for the experiments. The experiments with this material were approved by the Ethics Committee for Multi-Centric Clinical Trials of the University Hospital Motol, Reference No: EK-655/15. Methicillin-resistant S. aureus (MRSA 6271) ATCC 43300 and P. aeruginosa (5482) ATCC 27853 were purchased from the Czech National Collection of Type Cultures, National Institute of Public Health, Prague, Czech Republic. Methicillin-resistant S. aureus (MRSA (L)) and P. aeruginosa (L) were obtained as multi-resistant clinical isolates from Liberec Regional Hospital, Liberec, Czech Republic. Methicillin-resistant S. aureus (MRSA (M)), E. faecalis and S. epidermidis were obtained as clinical isolates from University Hospital in Motol, Prague. Candida albicans (F7-39/IDE99) came from the mycological collection of the Faculty of Medicine, Palacky University, Olomouc, Czech Republic. C. albicans ATCC MYA-2876, C. tropicalis ATCC 750 and C. glabrata DSY565 were kindly provided by Dr. Hana Sychrová from the Institute of Physiology, Academy of Sciences of the Czech Republic, Prague. Vancomycin hydrochloride, gentamicin sulfate, ceftriaxone disodium salt, amphotericin B, fluconazole, and clotrimazole were obtained from Sigma-Aldrich, Prague, Czech Republic.
(§2) MIC values for peptides were established by observing growth of treated bacteria in HONEYCOMB 100-well microtiter plates (Helsinki, Finland) using a Bioscreen C instrument (Oy Growth Curves, Helsinki, Finland) as previously described. Haemolytic activity of peptides expressed as the concentration of a peptide required for lysis of 50% of human erythrocytes in the assay (LC50) was measured using a Tecan infinite M200 PRO reader (Tecan Austria GmbH, Grödig, Austria). Blood samples for determining haemolytic activity were obtained from healthy volunteers.

MRSA 6271 (ATCC 43300) = test: microbe, parasite or virus in culture; assay type: cell-based; settings: growth in 100-well microtiter plates, Bioscreen C, tested at least three times in duplicates
Method: as §1, §2

[2] = tested on: MRSA clinical isolate from Liberec Regional Hospital (MRSA (L)); test: microbe, parasite or virus in culture; assay type: cell-based; settings: clinical isolate Liberec, Bioscreen C, at least three times in duplicates
Method: as §1, §2

[3] = tested on: MRSA clinical isolate from University Hospital in Motol (MRSA (M)); test: microbe, parasite or virus in culture; assay type: cell-based; settings: clinical isolate Motol, Bioscreen C, at least three times in duplicates
Method: as §1, §2

[4] = tested on: P. aeruginosa (5482) ATCC 27853; test: microbe, parasite or virus in culture; assay type: cell-based; settings: Bioscreen C, at least three times in duplicates
Method: as §1, §2

[5] = tested on: P. aeruginosa clinical isolate from Liberec Regional Hospital; test: microbe, parasite or virus in culture; assay type: cell-based; settings: clinical isolate Liberec, Bioscreen C, at least three times in duplicates
Method: as §1, §2

[6] = tested on: S. epidermidis clinical isolate (Motol); test: microbe, parasite or virus in culture; assay type: cell-based; settings: clinical isolate Motol, Bioscreen C, at least three times in duplicates
Method: as §1, §2

Candida albicans = assay type: cell-based; settings: Bioscreen C; at least three times in duplicates
Method: as §1, §2

human erythrocytes = test: Haemolysis assay; assay type: cell-based; settings: concentration causing lysis of 50% of human red blood cells; at least three times in duplicates
Method: as §2

laboratory rats = settings: infected femurs of laboratory rats treated locally; cited from earlier work
From the text: Another issue might be the toxicity of these peptides when applied locally to the bone tissue of laboratory animals or humans. […] None of these animals died.

| Molecule | Antimicrobial Activity MIC, E. f. b [1] [µM] | Antimicrobial Activity MIC, MRSA 6271 (MRSA 6271 (ATCC 43300)) [µM] | Antimicrobial Activity MIC, MRSA a [2] [µM] | Antimicrobial Activity MIC, MRSA b [3] [µM] | Antimicrobial Activity MIC, P. a. 5482 [4] [µM] | Antimicrobial Activity MIC, P. a. a [5] [µM] | Antimicrobial Activity MIC, S. e. b [6] [µM] | Antimicrobial Activity MIC, C. a. (Candida albicans) [µM] | Haemolytic Activity LC50 (human erythrocytes) [µM] | animals died (laboratory rats) | signs of local or systemic toxicity (laboratory rats) | MIC ([1]; Enterococcus faecalis, read-out: Antimicrobial Activity MIC, E. f. b) [µM] | MIC (MRSA 6271 (ATCC 43300); Staphylococcus aureus, read-out: Antimicrobial Activity MIC, MRSA 6271) [µM] | MIC ([2]; Staphylococcus aureus, MRSA, read-out: Antimicrobial Activity MIC, MRSA a) [µM] | MIC ([3]; Staphylococcus aureus, MRSA, read-out: Antimicrobial Activity MIC, MRSA b) [µM] | MIC ([4]; Pseudomonas aeruginosa, ATCC27853, read-out: Antimicrobial Activity MIC, P. a. 5482) [µM] | MIC ([5]; Pseudomonas aeruginosa, read-out: Antimicrobial Activity MIC, P. a. a) [µM] | MIC ([6]; Staphylococcus epidermidis, read-out: Antimicrobial Activity MIC, S. e. b) [µM] |
| --- | --- | --- | --- | --- | --- | --- | --- | --- | --- | --- | --- | --- | --- | --- | --- | --- | --- | --- |
| CC[C@@H](C)[C@@H](NC(=O)[C@@H](CCCCN)NC(=O)[C@@H](CCCCN)NC(=O)[C@@H](CC(C)C)NC(=O)[C@@H](CC(C)C)NC(=O)[C@@H](CCCCN)NC(=O)[C@@H](CCSC)NC(=O)[C@@H](Cc1c[nH]c2ccccc12)NC(=O)[C@@H](CCCCN)NC(=O)CCN)C(=O)N[C@H](CC(C)C)C(=O)N[C@H](CCCCN)C(N)=O [XII] (H-[βAla][dK][dW][dM][dK][dL][dL][dK][dK][dI][dL][dK]-NH2; N-terminus assumed) | 32.0 | 16.0 | 8.0 | 16.0 | 3.2 | 8.0 | 2.5 | 5.3 | >400 | – | – | – | – | – | – | – | – | – |
| CC[C@@H](C)[C@@H](NC(=O)[C@@H](CCCCN)NC(=O)[C@@H](CCCCN)NC(=O)[C@@H](CC(C)C)NC(=O)[C@@H](CC(C)C)NC(=O)[C@@H](CCCCN)NC(=O)[C@@H](CCSC)NC(=O)[C@@H](Cc1c[nH]c2ccccc12)NC(=O)[C@@H](CCCCN)NC(=O)CN)C(=O)N[C@H](CC(C)C)C(=O)N[C@H](CCCCN)C(N)=O [II] (H-G[dK][dW][dM][dK][dL][dL][dK][dK][dI][dL][dK]-NH2; N-terminus assumed) | 12.7 | 11.3 | 5.3 | 9.7 | 4.5 | 12.5 | 2.0 | 5.7 | >400 | – | – | – | – | – | – | – | – | – |
| GKWLKLLKKILK-NH2 [V] | 50.7 | 10.0 | 8.0 | 10.0 | 4.0 | 10.7 | 2.2 | 16.0 | 196 | – | – | – | – | – | – | – | – | – |
| GKWMKMLKKILK-NH2 [IV] | >100 | 20.0 | 10.0 | 20.0 | 5.3 | 12.7 | 3.2 | 12.7 | >200 | – | – | – | – | – | – | – | – | – |
| CC[C@@H](C)[C@@H](NC(=O)[C@@H](CCCCN)NC(=O)[C@@H](CCCCN)NC(=O)[C@@H](CC(C)C)NC(=O)[C@@H](CC(C)C)NC(=O)[C@@H](CCCCN)NC(=O)[C@@H](CCSC)NC(=O)[C@@H](Cc1c[nH]c2ccccc12)NC(=O)[C@H](N)CCCCN)C(=O)N[C@H](CC(C)C)C(=O)N[C@H](CCCCN)C(N)=O [X] (H-[dK][dW][dM][dK][dL][dL][dK][dK][dI][dL][dK]-NH2; N-terminus assumed) | 36 | 19.3 | 14.0 | 14.0 | 4.5 | 18.0 | 3.5 | 11.3 | >400 | – | – | – | – | – | – | – | – | – |
| CC[C@@H](C)[C@@H](NC(=O)[C@@H](CCCCN)NC(=O)[C@@H](CCCCN)NC(=O)[C@@H](CC(C)C)NC(=O)[C@@H](CC(C)C)NC(=O)[C@@H](CCCCN)NC(=O)[C@H](NC(=O)[C@@H](Cc1c[nH]c2ccccc12)NC(=O)[C@@H](CCCCN)NC(=O)CN)C(C)C)C(=O)N[C@H](CC(C)C)C(=O)N[C@H](CCCCN)C(N)=O [VII] (H-G[dK][dW][dV][dK][dL][dL][dK][dK][dI][dL][dK]-NH2; N-terminus assumed) | 25.3 | 22.0 | 15.0 | 22.0 | 4.5 | 25.3 | 4.2 | 12.5 | >400 | – | – | – | – | – | – | – | – | – |
| GKWMKLLKKILK-NH2 [I] | 13.3 | 6.3 | 3.6 | 5.7 | 2.8 | 10.0 | 2.3 | 5.7 | 339 | None | did not notice any signs of local or systemic toxicity | – | – | – | – | – | – | – |
| GKWKKLLKKILK-NH2 [III] | >100 | 29.7 | 11.5 | 25.3 | 2.9 | 9.5 | 4.7 | 9.5 | >400 | – | – | – | – | – | – | – | – | – |
| KWMKLLKKILK-NH2 [IX] | >100 | 13.5 | 8.0 | 17.7 | 2.9 | 5.8 | 3.2 | 9.5 | >400 | – | – | – | – | – | – | – | – | – |
| CNC(C)C1CCC(N)C(OC2C(N)CC(N)C(OC3OCC(C)(O)C(NC)C3O)C2O)O1 (stereo not drawn) [Gentamicin, gentamicin sulfate, reference compound] | – | – | – | – | – | – | – | – | – | – | – | 95.2 | 325 | 3.9 | 4.5 | 2 | > 220 | 109 |
| GKWVKLLKKILK-NH2 [VI] | >100 | 9.0 | 5.0 | 10.0 | 3.0 | 12.7 | 2.5 | 6.3 | >400 | – | – | – | – | – | – | – | – | – |
